The values below come from patent EP4592274A1, “RADIOLABELED TYROSINE DERIVATIVE AND APPLICATION THEREOF” (OSAKA UNIVERSITY, priority 2022, dated 2024).

In series [1] the test system is human pancreatic cancer cell line, PANC1. As to the kind of experiment: Therapeutic test on mice subcutaneously transplanted with PANC1 (Test Example 3). In kind it is in vivo. The source says:
Twenty-eight days after administration, the mice were euthanized and subjected to autopsy, and tumor masses were isolated after organs were examined for abnormalities.

Another series deals with PANC1. As to the kind of experiment: Cellular uptake test (using PANC1). In kind it is cell-based, human. As to conditions: compared to 211At-AAMT. The protocol:
• Cells to be used: PANC1 • Culture medium to be used: D-MEM (containing 10% FBS, 1% P/S)
Two days before a test day, a cell suspension was prepared in such a manner that the concentration of predetermined cells was 1 x 10^5 cells/mL in the same manner as in Test Example 1. The cell suspension was seeded in a 24-well multiculture plate at a volume of 0.5 mL per well. On the day of the test, cultures were confirmed to be subconfluent (which refers to a state where 70-80% of the well is covered in density). The cells were washed twice with warmed PBS(-) Buffer (166-23555, FUJIFILM Wako Pure Chemical Corporation), the culture medium was replaced with HBSS(-) Buffer (085-09355, FUJIFILM Wako Pure Chemical Corporation), and the plate was left to stand in an incubator (MINIcell-35, WakenBtech Co., Ltd) until an RI addition test.
^211At-AAMT-OMe, ^211At-AAMT-OEt, ^211At-AAMT-OPr, or ^211At-AAMT was added to the prepared cells at 10 µL/well. BCH (LAT1 inhibitor, 20 mM) or unlabeled AMT (α-methyl tyrosine, […]) was previously (15 minutes before) added (10 µg/mL). The cells were cultured (CO2 5%, 37°C), and after 30 minutes, the liquid was removed by suction using an aspirator. The cells were washed twice with PBS(-). The cells were lysed by adding 0.1N NaOH to obtain a lysate, and the radioactivity of the lysate was measured using a γ counter. After the radioactivity measurement, the lysate was loaded into a 96-well plate at a volume of 10 µL per well, the protein amount was measured by the BCA method, and the number of cells was corrected based on the protein amount. Absorbance was measured by MultiScanFC (Thermo Fisher). The uptake level of ^211At-AAMT-OMe, ^211At-AAMT-OEt, ^211-At-AAMT-OPr, or ^211At-AAMT into the cells (number of radioactivity counts/protein amount) was calculated.

For `COc1ccc(C[C@](C)(N)C(=O)O)cc1[211At]` [^211At-AAMT-OMe, (S)-3-astato(^211At)-O-methyl-α-methyltyrosine], the “tumor size (wet weight of isolated tumor masses)” value in series [1] (28 days after administration, 1 MBq per mouse via tail vein, compared with the 211At-AAMT administration group) is “slightly smaller”. Further, in series [1] (immediately after administration to 28th day, 1 MBq per mouse, not at a level regarded as a side effect), the mouse body weight entry is given as “tends to slightly reduce”. Further, the uptake speed result in the series with PANC1 (PANC1 cells) is given as “much superior”. Besides, the “uptake level into the cells (number of radioactivity counts/protein amount)” value in the series on PANC1 is given as “much superior”.
